Experimental data published in patent US12329739B2, “Isoflavonoid compounds and methods for the treatment of cancer” (Aardvark Therapeutics, Inc., priority 2010, dated 2025).

How the values were obtained:
PC3 = assay: MTT proliferation assay, PC3; format: cell-based
Experimental: (§1) Proliferation Assays. IC50 values were determined for each cell line. Cells were seeded in 96-well plates at an appropriate cell density as determined from growth kinetics analysis and cultured for 5 days in the absence and presence of the test compounds. Cell proliferation was assessed after the addition of 20 μl of 3-4,5 dimethylthiazol-2,5-diphenyl tetrazolium bromide (MTT, 5 mg/ml in PBS, Sigma) for 5 hrs at 37° C. according to manufacturer's instructions. IC50 values were calculated from semi-log plots of % of control proliferation on the y-axis against log dose on the x-axis.
(§2) Anti-proliferative Activity of Isoflavonoid Derivatives. IC50 values were determined for each cell line after 120 h of exposure.

A2780 = assay: MTT proliferation assay, A2780; format: cell-based
Experimental: as §1, §2

CP70 = assay: MTT proliferation assay, CP70; format: cell-based
Experimental: as §1, §2

A2058 = assay: MTT proliferation assay, A2058; format: cell-based; details: Homo sapiens, A2058, 120 h
Experimental: as §1, §2

MDA-MB-468 = assay: MTT proliferation assay, MDA-MB-468; format: cell-based, human
Experimental: The human gastric cancer cell line AGS (CRL-1739) was cultured in Hams F-12K (Kaighans modification) medium containing 2 mM L-glutamine, 2.5 g/L sodium bicarbonate and 2 mM sodium pyruvate. The human breast adenocarcinoma line MDA-MB-468 (HTB-132) was cultured in DMEM:F12 (1:1) medium containing 2.5 mM L-glutamine, 2.4 g/L sodium bicarbonate, supplemented with an additional 2 mM L-glutamine.
as §1, §2

SKBR-3 = assay: MTT proliferation assay, SKBR-3; format: cell-based, human
Experimental: The human colorectal adenocarcinoma line HCT-116 (CCL-247) and the human breast adenocarcinoma line SK-BR-3 (HTB-30) were cultured in McCoy's 5a Medium (Invitrogen) containing 1.5 mM L-glutamine and 2.2 g/L sodium bicarbonate. The human colorectal adenocarcinoma line SW620 (CCL-227) was cultured in Leibovitz's L-15 Medium (Invitrogen) containing 2.05 mM L-glutamine.
as §1, §2

MM2200 = assay: MTT proliferation assay, MM2200; format: cell-based; details: Table 2, Melanoma, MM2200, 120 hrs of exposure
Experimental: as §1, §2
Activity data is provided is Table 2.

[1] = system: A2780 ovarian cancer cells; assay: Combination with carboplatin, proliferation of A2780 cells; format: cell-based; details: for enhancement of the anti-cancer effect of carboplatin: A2780, depending on exposure regimen (24 hr concurrent or sequential)
Experimental: In vitro toxicity in normal and cancer cells. Cells were seeded in 96-well plates at an appropriate cell density as determined from growth kinetics analysis. Depending on the plating efficiency and lag phase of individual cell lines, cells were allowed to plate down prior to drug exposure. Intra-experimental single agent controls were included to ensure IC50 values obtained for each cell line matched previous IC50 determinations. Four analogue concentrations were employed in each analysis. Analogue concentrations used in each assay were chosen based on IC50 values, which formed the top concentration of analogue used. Subsequent concentrations were chosen based on simple ½ or 1/10 dilutions of the top analogue concentration employed (i.e. 2, 1, 0.5, 0.25 μM). Nine 1/10 serial dilutions of chemotherapeutic were employed with the top chemotherapeutic concentration being 50 μM.
For combined analysis, analogue concentrations were held constant through 1/10 serial dilutions of chemotherapeutic in growth medium (top chemotherapeutic concentration employed was 50 μM). Combined cultures were cultured for 5 days.
The sequence of administration effect of each agent on chemotherapeutic IC50 values was assessed by exposing plated cells to a single agent in sequence for 24 hr. To assess the isoflavonoid derivative→chemotherapeutic sequence, plated cells were first exposed to the appropriate analogue concentrations and incubated at 37° C. for 24 hr. Cells were washed with growth medium and then exposed to the appropriate chemotherapeutic concentrations and incubated for 24 hr. Cells were then washed and incubated for a further 3 days. To assess the chemotherapeutic→isoflavonoid derivative sequence, the procedure was reversed.
Cell proliferation was assessed after the addition of 20 μl of 3-4,5 dimethylthiazol-2,5-diphenyl tetrazolium bromide (MTT, 2.5 mg/ml in PBS, Sigma) for 3-4 hrs at 37° C. according to manufacturer's instructions. IC50 values were calculated from semi-log plots of % of control proliferation on the y-axis against log dose on the x-axis.
3-D model analysis of the cytotoxic interaction between drug A and drug B enables the representation of predicted inhibitory effect of two drugs in combination in 3 dimensions to reveal actual regions of synergy or antagonism. The 3D synergy plots are based on a theory of “Theoretical Additivity” (TA or […]) as outlined by Kanzawa et al. Theoretical Additivity was calculated from the cytotoxicities of drug A and drug B as monotherapies using the following formula which assumes the drugs are mutually exclusive inhibitors: […]
The TA is calculated for each combination of drug concentrations and subtracted from the observed experimental effect for each combination to give a measurement of synergistic or enhanced action.
Combination index (CI) analysis, which employs the median-effect principle correlating drug dose to cytotoxicity, was also employed to assess synergy. The median-effect equation is utilized to calculate the dose of a drug that inhibits “x” percent of cells (Chou and Talalay, 1984). D=Dm[fa/(1−fa)]^1/m
In vitro Assessment of Combination of Optically Active Compound 31 and Carboplatin. Combination studies employed both 24 hr concurrent exposure, and 24 hr sequential exposure (racemic compound 32→Carboplatin) regimens. In both studies, four analogue concentrations (0.25, 0.5, 1 and 5 μM) were held constant against titrated carboplatin. When 1 and 5 μM of compound 32 was assessed in combination with the lowest concentration of carboplatin employed in this study (0.4 μM), no IC50 for carboplatin was achieved due the high levels of cell kill observed (30-40% of control).

DU145 = assay: MTT proliferation assay, DU145; format: cell-based; details: Homo sapiens, DU-145; Prostate, DU145, 120 h of exposure
Experimental: as §1, §2

LNCaP = assay: MTT proliferation assay, LNCaP; format: cell-based; details: Homo sapiens, Prostate, 120 h of exposure
Experimental: as §1, §2

COLO205 = assay: MTT proliferation assay, COLO205; format: cell-based, human; details: Homo sapiens, COLO 205; CRC, COLO205, 120 h of exposure
Experimental: (§3) The human non-small cell lung adenocarcinoma lines NCI-H1299 (CRL-5803), NCI-H460 (HTB-177), NCI-H358 (CRL-5807), NCI-H838 (CRL-5844), the human colorectal adenocarcinoma lines COLO 205 (CCL-222), HCT-15 (CCL-225) and the human gastric cancer cell line NCI-N87 (CRL-5822) were cultured in RPMI 1640 medium containing 2 g/L sodium bicarbonate (Hyclone/Invitrogen) supplemented with 2 mM L-glutamine (Gibco) 1 mM sodium pyruvate (Sigma), 10 mM HEPES (Sigma) and 4500 mg/L glucose (Sigma). The human non-small cell lung adenocarcinoma line NCI-H2126 (CCL-256) was cultured in DMEM:F12(1:1) (Hyclone/Invitrogen) containing 2.5 mM L-glutamine 2.4 g/L sodium bicarbonate supplemented with 5% fetal bovine serum (FBS), an additional 2 mM L-glutamine, 15 mM HEPES, 0.005 mg/ml insulin (Sigma), 0.01 mg/ml transferrin (Sigma), 30 nM sodium selenite (Sigma), 10 nM hydrocortisone (Sigma) and 10 nM beta-estradiol (Sigma). The human colorectal adenocarcinoma line HT-29 (HTB-38) and the human gastric cancer cell lines OE-19 (#96071721) and MKN1 (JCRB0252) were cultured in RPMI 1640 media supplemented with 2 mM L-glutamine.
as §1, §2

R-182 = assay: MTT proliferation assay, R-182; format: cell-based; details: Ovarian, R-182, 120 h of exposure
Excerpt: Tissue culture. The multidrug resistant primary epithelial ovarian cancer cell line R-182 TARA was a gift from Dr. Gil Mor (Yale University, New Haven, CT, USA). This cell line was derived by explant from ovarian tumors and cultured as previously described. All other cell lines were purchased from American Type Culture Collection (ATCC, Manassas, VA, USA) with the exception of MKN1, HuH-7, JHH-1, which were purchased from the Japanese Collection of Research Bioresources (JCRB, Osaka, Japan), and OE19 which was purchased from the European Collection of Cell Cultures (ECACC, Salisbury, UK).
as §1, §2

NCI-H460 = assay: MTT proliferation assay, NCI-H460; format: cell-based, human; details: Homo sapiens; NSCLC, NCI-H460, 120 h of exposure
Experimental: as §3, §1, §2

A549 = assay: MTT proliferation assay, A549; format: cell-based; details: Homo sapiens; NSCLC, A549, 120 h of exposure
Experimental: as §1, §2

CALU3 = assay: MTT proliferation assay, CALU3; format: cell-based; details: Homo sapiens, Calu-3; NSCLC, CALU3, 120 h of exposure
Experimental: as §1, §2

HepG2 = assay: MTT proliferation assay, HepG2; format: cell-based, human; details: Homo sapiens; Liver, HepG2, 120 h of exposure
Experimental: (§4) The human hepatocellular carcinoma lines HepG2 (HB-8065), SK-HEP-1 (HTB-52) and the normal human lung fibroblast line IMR-90 (CCL-186) were cultured in Minimum Essential Eagles Medium containing 2 mM L-glutamine, 2.2 g/L sodium bicarbonate, supplemented with 1 mM sodium pyruvate and 0.1 mM non-essential amino acids. The human hepatocellular carcinoma line JHH-1 (JCRB1062) was cultured in Williams E Medium (Invitrogen) containing 2.2 g/L sodium bicarbonate, supplemented with 2 mM L-glutamine. The hepatocellular carcinoma line HuH-7 (JCRB0403) was cultured in DMEM, supplemented with 2 mM L-glutamine.
as §1, §2

SK-Hep-1 = assay: MTT proliferation assay, SK-Hep-1; format: cell-based, human; details: Homo sapiens, SK-HEP1; Liver, SK-Hep-1, 120 h of exposure
Experimental: as §4, §1, §2

HuH-7 = assay: MTT proliferation assay, HuH-7; format: cell-based, human; details: Homo sapiens; Liver, HuH-7, 120 h of exposure
Experimental: as §4, §1, §2

4405 = assay: MTT proliferation assay, 4405; format: cell-based; details: Melanoma, 4405, 120 h of exposure
Experimental: as §1, §2

MM200 = assay: MTT proliferation assay, MM200; format: cell-based; details: Melanoma, MM200, 120 h of exposure
Experimental: as §1, §2

Oc1ccc([C@H]2c3ccc(O)cc3OC[C@H]2c2ccc(O)cc2)cc1 (racemic) [Compound 32]
IC50 (PC3; Table 2, Prostate, PC3, 120 hrs of exposure): 0.51 to 1.5 µM | IC50 (A2780; Table 2, Ovarian, A2780, 120 hrs of exposure): 0.51 to 1.5 µM | IC50 (CP70; Table 2, Ovarian, CP70, 120 hrs of exposure): 0.51 to 1.5 µM | IC50 (A2058; Table 2, Melanoma, A2058, 120 hrs of exposure): 0.15 to 0.5 µM | IC50 (MDA-MB-468; Table 2, Breast, MDA-MB-468, 120 hrs of exposure): 0.51 to 1.5 µM | IC50 (SKBR-3; Table 2, Breast, SKBR-3, 120 hrs of exposure): 0.51 to 1.5 µM | IC50 (MM2200): 0.51 to 1.5 µM | enhancement of the anti-cancer effect of carboplatin ([1]; 0.25 μM of compound): 1.5-2 fold | enhancement of the anti-cancer effect of carboplatin ([1]; 0.5 μM of compound): 7-11 fold | cell kill level observed (no IC50 for carboplatin achieved) ([1]; 1 and 5 μM of compound plus 0.4 μM carboplatin, A2780): 30-40 % of control | compound concentration giving maximal activity enhancement with carboplatin ([1]; 3D method of Kanzawa, 12.5 μM carboplatin, A2780): 0.5 µM

Oc1ccc([C@@H]2c3ccc(O)cc3OC[C@@H]2c2ccc(O)cc2)cc1 [Compound 33]
IC50 (A2780; Homo sapiens, A2780, 120 h, Table 2, Ovarian, A2780, 120 hrs of exposure): ≥ 10 µM | IC50 (CP70; 120 h, Table 2, Ovarian, CP70, 120 hrs of exposure): ≥ 10 µM | IC50 (SKBR-3; Homo sapiens, SK-BR-3, 120 h, Table 2, Breast, SKBR-3, 120 hrs of exposure): ≥ 10 µM | IC50 (MM2200): ≥ 10 µM | activity enhancement in combination with carboplatin ([1]; A2780 cell line, 31 compared with compound 32): did not impart any activity enhancement or antagonistic effect

Cc1c(O)ccc2c1OC[C@@H](c1ccc(O)cc1)[C@H]2c1ccc(O)cc1 [d-5, d-cis-3-(4-hydroxyphenyl)-4-(4-hydroxyphenyl)-8-methylchroman-7-ol]
IC50 (PC3; Homo sapiens, PC-3, 120 h, Prostate, PC3, 120 h of exposure): ≤ 0.15 µM | IC50 (DU145): ≤ 0.15 µM | IC50 (LNCaP): ≤ 0.15 µM | IC50 (COLO205): 0.51 to 1.5 µM | IC50 (A2780; Homo sapiens, A2780, 120 h, Ovarian, A2780, 120 h of exposure): ≤ 0.15 µM | IC50 (R-182): ≤ 0.15 µM | IC50 (CP70; 120 h, Ovarian, CP70, 120 h of exposure): ≤ 0.15 µM | IC50 (NCI-H460): ≤ 0.15 µM | IC50 (A549): 0.15 to 0.5 µM | IC50 (CALU3): ≤ 0.15 µM | IC50 (HepG2): ≤ 0.15 µM | IC50 (SK-Hep-1): ≤ 0.15 µM | IC50 (HuH-7): ≤ 0.15 µM | IC50 (A2058; Melanoma, A2058, 120 h of exposure): ≤ 0.15 µM | IC50 4405: ≤ 0.15 µM | IC50 (MM200): 0.15 to 0.5 µM | IC50 (MDA-MB-468; Homo sapiens, MDA-MB-468, 120 h, Breast, MDA-MB-468, 120 h of exposure): ≤ 0.15 µM | IC50 (SKBR-3; Homo sapiens, SK-BR-3, 120 h, Breast, SKBR-3, 120 h of exposure): ≤ 0.15 µM
